Consider two molecules from patent US20080300237A1, “Pharmaceutically Active Diazepanes” (priority 2005, published 2008).

Usually IC50 stands for the concentration at which inhibition is half-maximal.

The test deals with T1, human LFA-1 (Homo sapiens, UniProt P20701).
T1 construct: endogenous in cells; host or cells: JY cells (human lymphoblastoid B cell line); The ICAM-1 fusion partner is made in the baculovirus system
Briefly: In vitro cell free assay: binding of soluble human ICAM-1 to immobilized human LFA-1. As to conditions: immobilized human LFA-1, biotinylated recombinant ICAM-1, read-out: IC50, inhibition of adhesion of LFA-1 to ICAM-1. The protocol: A. In Vitro TEST SYSTEM (Cell Free Assay)
The assay determines the binding of soluble human ICAM-1 to immobilized human LFA-1. LFA-1 is purified from JY cells, a human lymphoblastoid B cell-line, by immunoaffinity chromatography analogously as described by Dustin et al., J. Immunol. 148, 2654-2663, 1992. ICAM-1 mouse Cκ fusion protein (ICAM-1) is produced using the baculovirus system as described by Weitz-Schmidt et al., Anal. Biochem. 238, 184-190, 1996.
Purified LFA-1 is diluted 1:20 in phosphate buffered saline (PBS) containing 2 mM MgCl2, pH 7.4 and coated onto microtiter plates (Nunc) at 37° for 3 hours. Plates are blocked with 1% heat-treated bovine serum albumin in PBS for 2 hours at 37° followed by a washing step using PBS, 2 mM MgCl2, 1% fetal calf serum, pH 7.4 (assay buffer). Compounds of the present invention (10 mM solution in DMSO) are diluted in assay buffer and added to the plates. Biotinylated recombinant ICAM-1 in assay buffer (6 μg/ml) is added and allowed to bind at 37° for one hour. After incubation, wells are washed with assay buffer. Streptavidinperoxidase diluted 1:5000 in assay buffer is added and incubated for 45 min at 37°. […] The reaction is stopped after 20 minutes and bound ICAM-1 is determined by measuring the optical density at 405 nm in a microplate reader.

T1 sequence (P20701 26-1170): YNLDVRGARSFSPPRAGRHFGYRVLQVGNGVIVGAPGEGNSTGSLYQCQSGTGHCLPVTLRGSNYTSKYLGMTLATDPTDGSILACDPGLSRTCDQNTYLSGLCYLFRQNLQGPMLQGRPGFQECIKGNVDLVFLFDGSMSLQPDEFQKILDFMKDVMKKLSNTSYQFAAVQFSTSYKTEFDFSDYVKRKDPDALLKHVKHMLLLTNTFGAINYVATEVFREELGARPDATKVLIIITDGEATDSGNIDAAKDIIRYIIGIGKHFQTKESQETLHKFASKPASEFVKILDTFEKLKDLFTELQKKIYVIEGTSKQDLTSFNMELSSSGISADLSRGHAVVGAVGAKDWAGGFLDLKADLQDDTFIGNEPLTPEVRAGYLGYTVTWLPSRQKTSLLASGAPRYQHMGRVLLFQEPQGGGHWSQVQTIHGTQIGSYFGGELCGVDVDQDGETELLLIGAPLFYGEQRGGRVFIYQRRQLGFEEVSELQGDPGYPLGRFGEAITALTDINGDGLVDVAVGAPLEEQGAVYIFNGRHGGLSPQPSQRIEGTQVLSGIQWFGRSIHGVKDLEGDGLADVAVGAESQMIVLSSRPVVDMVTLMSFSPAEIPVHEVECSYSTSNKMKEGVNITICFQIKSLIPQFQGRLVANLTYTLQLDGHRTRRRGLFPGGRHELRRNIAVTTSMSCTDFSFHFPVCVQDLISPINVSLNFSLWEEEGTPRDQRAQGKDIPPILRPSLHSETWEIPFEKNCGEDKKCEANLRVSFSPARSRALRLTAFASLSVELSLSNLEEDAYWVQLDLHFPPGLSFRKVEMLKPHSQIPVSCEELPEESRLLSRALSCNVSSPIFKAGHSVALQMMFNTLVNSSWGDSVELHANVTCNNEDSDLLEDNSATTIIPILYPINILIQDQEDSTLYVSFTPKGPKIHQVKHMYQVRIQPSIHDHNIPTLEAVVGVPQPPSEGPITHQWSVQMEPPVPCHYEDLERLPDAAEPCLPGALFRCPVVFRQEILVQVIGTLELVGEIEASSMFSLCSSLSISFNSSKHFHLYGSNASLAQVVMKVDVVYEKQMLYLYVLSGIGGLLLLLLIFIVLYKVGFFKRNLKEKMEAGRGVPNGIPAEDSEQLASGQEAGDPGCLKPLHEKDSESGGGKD
T1 sequence (P05107 23-769 partner): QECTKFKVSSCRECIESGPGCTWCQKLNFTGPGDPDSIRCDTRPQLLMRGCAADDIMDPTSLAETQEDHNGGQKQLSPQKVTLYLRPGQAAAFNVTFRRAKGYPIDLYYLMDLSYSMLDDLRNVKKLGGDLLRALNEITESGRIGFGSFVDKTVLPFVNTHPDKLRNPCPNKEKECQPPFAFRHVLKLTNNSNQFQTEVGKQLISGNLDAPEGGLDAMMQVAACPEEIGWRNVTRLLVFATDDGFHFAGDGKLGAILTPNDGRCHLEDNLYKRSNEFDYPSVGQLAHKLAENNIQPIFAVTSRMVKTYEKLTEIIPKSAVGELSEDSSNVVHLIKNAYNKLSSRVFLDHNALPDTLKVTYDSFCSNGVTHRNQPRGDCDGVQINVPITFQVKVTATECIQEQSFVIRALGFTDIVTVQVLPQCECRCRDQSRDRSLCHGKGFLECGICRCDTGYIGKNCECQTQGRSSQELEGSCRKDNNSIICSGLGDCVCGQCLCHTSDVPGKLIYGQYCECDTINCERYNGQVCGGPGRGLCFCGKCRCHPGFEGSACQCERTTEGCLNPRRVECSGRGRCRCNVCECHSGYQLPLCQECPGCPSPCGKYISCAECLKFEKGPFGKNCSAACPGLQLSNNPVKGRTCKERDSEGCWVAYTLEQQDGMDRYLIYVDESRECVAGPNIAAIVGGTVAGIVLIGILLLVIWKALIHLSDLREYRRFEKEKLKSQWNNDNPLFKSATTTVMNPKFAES

For the molecule `C[C@@H]1CCN([C@H](Cc2cccc3ccccc23)C(N)=O)C(=O)[C@H](c2cccc(Cl)c2)N1C(=O)CNC(=O)c1ccccc1` [Example 13, N-{2-[(2S,7R)-4-((R)-1-Carbamoyl-2-naphthalen-1-yl-ethyl)-2-(3-chloro-phenyl)-7-methyl-3-oxo-[1,4]diazepan-1-yl]-2-oxo-ethyl}-benzamide], the IC50 worked out at 430 nM.

As to `C[C@@H]1CCN([C@H](Cc2cccc3ccccc23)C(N)=O)C(=O)[C@H](c2cccc(Cl)c2)N1C(=O)CNC(=O)[C@@H]1CCCN1` [Example 14, (S)-Pyrrolidine-2-carboxylic acid {2-[(2S,7R)-4-((R)-1-carbamoyl-2-naphthalen-1-yl-ethyl)-2-(3-chloro-phenyl)-7-methyl-3-oxo-[1,4]diazepan-1-yl]-2-oxo-ethyl}-amide], the IC50 turned out to be 90 nM.
